From the NIST ThermoML archive (doi:10.1021/je100057b)
Where “and” joins values, the source holds several entries; their conditions need not be identical. Equal values may be shown once.

Conditions: Liquid, Falling or rolling sphere viscometry

CCCCC(=O)OCC(COCC(COC(=O)CCCC)(COC(=O)CCCC)COC(=O)CCCC)(COC(=O)CCCC)COC(=O)CCCC
Conditions | viscosity
283.15 K, 101.33 kPa | 259 mPa·s and 257.9 mPa·s
288.15 K, 101.33 kPa | 189.2 mPa·s and 188.5 mPa·s
293.15 K, 101.33 kPa | 141.2 mPa·s and 140.8 mPa·s
298.15 K, 101.33 kPa | 107.6 mPa·s and 107.3 mPa·s
303.15 K, 100 kPa | 85.9 mPa·s
303.15 K, 101.33 kPa | 83.52 mPa·s and 83.31 mPa·s
303.15 K, 1000 kPa | 87.2 mPa·s
303.15 K, 5000 kPa | 93.2 mPa·s
303.15 K, 10000 kPa | 101 mPa·s
303.15 K, 20000 kPa | 119 mPa·s
303.15 K, 30000 kPa | 139 mPa·s
303.15 K, 40000 kPa | 163 mPa·s
303.15 K, 50000 kPa | 189 mPa·s
303.15 K, 60000 kPa | 219 mPa·s
308.15 K, 101.33 kPa | 65.88 mPa·s and 65.72 mPa·s
313.15 K, 100 kPa | 54.3 mPa·s
313.15 K, 101.33 kPa | 52.73 mPa·s and 52.64 mPa·s
313.15 K, 1000 kPa | 55.1 mPa·s
313.15 K, 5000 kPa | 58.8 mPa·s
313.15 K, 10000 kPa | 63.6 mPa·s
313.15 K, 20000 kPa | 74.4 mPa·s
313.15 K, 30000 kPa | 86.6 mPa·s
313.15 K, 40000 kPa | 100 mPa·s
313.15 K, 50000 kPa | 116 mPa·s
313.15 K, 60000 kPa | 133 mPa·s
318.15 K, 101.33 kPa | 42.8 mPa·s and 42.75 mPa·s
323.15 K, 101.33 kPa | 35.18 mPa·s and 35.15 mPa·s
328.15 K, 101.33 kPa | 29.24 mPa·s and 29.25 mPa·s
333.15 K, 100 kPa | 25 mPa·s
333.15 K, 101.33 kPa | 24.55 mPa·s and 24.59 mPa·s
333.15 K, 1000 kPa | 25.4 mPa·s
333.15 K, 5000 kPa | 26.9 mPa·s
333.15 K, 10000 kPa | 29 mPa·s
333.15 K, 20000 kPa | 33.6 mPa·s
333.15 K, 30000 kPa | 38.6 mPa·s
333.15 K, 40000 kPa | 44.2 mPa·s
333.15 K, 50000 kPa | 50.3 mPa·s
333.15 K, 60000 kPa | 56.9 mPa·s
338.15 K, 101.33 kPa | 20.81 mPa·s and 20.88 mPa·s
343.15 K, 101.33 kPa | 17.79 mPa·s and 17.88 mPa·s
348.15 K, 101.33 kPa | 15.34 mPa·s and 15.44 mPa·s
353.15 K, 100 kPa | 13.5 mPa·s
353.15 K, 101.33 kPa | 13.33 mPa·s and 13.42 mPa·s
353.15 K, 1000 kPa | 13.6 mPa·s
353.15 K, 5000 kPa | 14.4 mPa·s
353.15 K, 10000 kPa | 15.45 mPa·s
353.15 K, 20000 kPa | 17.7 mPa·s
353.15 K, 30000 kPa | 20.1 mPa·s
353.15 K, 40000 kPa | 22.8 mPa·s
353.15 K, 50000 kPa | 25.7 mPa·s
353.15 K, 60000 kPa | 28.8 mPa·s
358.15 K, 101.33 kPa | 11.66 mPa·s and 11.76 mPa·s
363.15 K, 101.33 kPa | 10.26 mPa·s and 10.36 mPa·s
368.15 K, 101.33 kPa | 9.08 mPa·s and 9.18 mPa·s
373.15 K, 100 kPa | 8.22 mPa·s
373.15 K, 101.33 kPa | 8.09 mPa·s and 8.18 mPa·s
373.15 K, 1000 kPa | 8.32 mPa·s
373.15 K, 5000 kPa | 8.78 mPa·s
373.15 K, 10000 kPa | 9.38 mPa·s
373.15 K, 20000 kPa | 10.6 mPa·s
373.15 K, 30000 kPa | 12 mPa·s
373.15 K, 40000 kPa | 13.5 mPa·s
373.15 K, 50000 kPa | 15.2 mPa·s
373.15 K, 60000 kPa | 16.9 mPa·s

CCCCCCC(=O)OCC(COCC(COC(=O)CCCCCC)(COC(=O)CCCCCC)COC(=O)CCCCCC)(COC(=O)CCCCCC)COC(=O)CCCCCC [dipentaerythritol hexaheptanoate]
Conditions | viscosity
283.15 K, 101.33 kPa | 260.7 mPa·s and 259.1 mPa·s
288.15 K, 101.33 kPa | 191.1 mPa·s and 190 mPa·s
293.15 K, 101.33 kPa | 143.1 mPa·s and 142.2 mPa·s
298.15 K, 101.33 kPa | 109.2 mPa·s and 108.5 mPa·s
303.15 K, 100 kPa | 86.3 mPa·s
303.15 K, 101.33 kPa | 84.89 mPa·s and 84.39 mPa·s
303.15 K, 1000 kPa | 87.7 mPa·s
303.15 K, 5000 kPa | 93.9 mPa·s
303.15 K, 10000 kPa | 102 mPa·s
303.15 K, 20000 kPa | 121 mPa·s
303.15 K, 30000 kPa | 142 mPa·s
303.15 K, 40000 kPa | 167 mPa·s
303.15 K, 50000 kPa | 194 mPa·s
303.15 K, 60000 kPa | 226 mPa·s
308.15 K, 101.33 kPa | 67.04 mPa·s and 66.67 mPa·s
313.15 K, 100 kPa | 55.8 mPa·s
313.15 K, 101.33 kPa | 53.73 mPa·s and 53.45 mPa·s
313.15 K, 1000 kPa | 56.6 mPa·s
313.15 K, 5000 kPa | 60.3 mPa·s
313.15 K, 10000 kPa | 65.3 mPa·s
313.15 K, 20000 kPa | 76.3 mPa·s
313.15 K, 30000 kPa | 88.9 mPa·s
313.15 K, 40000 kPa | 103 mPa·s
313.15 K, 50000 kPa | 119 mPa·s
313.15 K, 60000 kPa | 138 mPa·s
318.15 K, 101.33 kPa | 43.66 mPa·s and 43.45 mPa·s
323.15 K, 101.33 kPa | 35.93 mPa·s and 35.77 mPa·s
328.15 K, 101.33 kPa | 29.91 mPa·s and 29.79 mPa·s
333.15 K, 100 kPa | 25.5 mPa·s
333.15 K, 101.33 kPa | 25.18 mPa·s and 25.07 mPa·s
333.15 K, 1000 kPa | 25.9 mPa·s
333.15 K, 5000 kPa | 27.5 mPa·s
333.15 K, 10000 kPa | 29.6 mPa·s
333.15 K, 20000 kPa | 34.3 mPa·s
333.15 K, 30000 kPa | 39.5 mPa·s
333.15 K, 40000 kPa | 45.3 mPa·s
333.15 K, 50000 kPa | 51.7 mPa·s
333.15 K, 60000 kPa | 58.8 mPa·s
338.15 K, 101.33 kPa | 21.39 mPa·s and 21.31 mPa·s
343.15 K, 101.33 kPa | 18.32 mPa·s and 18.27 mPa·s
348.15 K, 101.33 kPa | 15.82 mPa·s and 15.79 mPa·s
353.15 K, 100 kPa | 13.8 mPa·s
353.15 K, 101.33 kPa | 13.77 mPa·s and 13.75 mPa·s
353.15 K, 1000 kPa | 14 mPa·s
353.15 K, 5000 kPa | 14.8 mPa·s
353.15 K, 10000 kPa | 15.9 mPa·s
353.15 K, 20000 kPa | 18.2 mPa·s
353.15 K, 30000 kPa | 20.8 mPa·s
353.15 K, 40000 kPa | 23.6 mPa·s
353.15 K, 50000 kPa | 26.6 mPa·s
353.15 K, 60000 kPa | 30 mPa·s
358.15 K, 101.33 kPa | 12.06 mPa·s
363.15 K, 101.33 kPa | 10.64 mPa·s
368.15 K, 101.33 kPa | 9.44 mPa·s and 9.45 mPa·s
373.15 K, 100 kPa | 8.46 mPa·s
373.15 K, 101.33 kPa | 8.42 mPa·s and 8.43 mPa·s
373.15 K, 1000 kPa | 8.56 mPa·s
373.15 K, 5000 kPa | 9.04 mPa·s
373.15 K, 10000 kPa | 9.66 mPa·s
373.15 K, 20000 kPa | 11 mPa·s
373.15 K, 30000 kPa | 12.4 mPa·s
373.15 K, 40000 kPa | 14 mPa·s
373.15 K, 50000 kPa | 15.7 mPa·s
373.15 K, 60000 kPa | 17.5 mPa·s
